Measurements published in patent US20230390222A1, “Amyloid-Binding Peptoids with Broad-Spectrum Antiviral, Antibacterial, and Antifungal Activity” (The Board of Trustees of the Leland Stanford Junior …, priority 2021, published 2023).
Entries after “also recorded” stand apart in the source; their conditions may differ.

Legend:
[1] = ThT fibril formation assay comparing kinetics of Aβ40 wild-type and Aβ40-E22Δ (Osaka) mutant; details: standard ThT fibril formation conditions, peptide alone
Method: FIG. 5 depicts a ThT fibril formation assay comparing fibril formation kinetics of Aβ40 wild-type and the Aβ40-E22Δ (Osaka) FAD mutant.
FIG. 5 illustrates exemplary data of preliminary experiments in which Aβ40-E22Δ was synthesized and subjected to standard conditions utilized in ThT fibril formation assays. FIG. 5 illustrates that the deletion of the E22 residue leads to a pronounced acceleration of fibril formation, which dropped from 196±7 min with Aβ40-WT to 38±1 min with Aβ40-E22Δ. The Aβ40-E22Δ mutant is much more amyloidogenic than Aβ40-WT, which may complicate efforts to block its amyloidogenicity.

S. aureus = test: Activity against S. aureus; format: cell-based
M tuberculosis = test: Activity against M tuberculosis; format: cell-based
C. albicans = test: Activity against C. albicans; format: cell-based
P. gingivalis = test: Antimicrobial activity against P. gingivalis; format: cell-based, Porphyromonas gingivalis
HSV-1 = test: Antiviral activity (inactivation) against HSV-1; format: cell-based, Herpes Simplex Virus-1
P. aeruginosa = test: Activity against P. aeruginosa; format: cell-based
Aβ40 = target: T1, Aβ40 (Homo sapiens, UniProt P05067); test: Thioflavin T (ThT) fluorescence assay of Aβ40 fibril formation in presence of LL-37 or peptoid; format: biochemical
T1 construct: The 40 AA long isoform, Aβ40, is formed predominantly
T1 sequence (P05067 672-711 limits assumed): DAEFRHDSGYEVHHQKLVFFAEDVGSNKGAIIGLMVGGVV

## Aβ40-E22Δ: FAD-causing Aβ40 variant with deletion of E22, known as the Osaka mutation (DAEFRHDSGYEVHHQKLVFFADVGSNKGAIIGLMVGGVV; Amyloid-beta protein 40; UniProt P05067 672-711, looked up, variant E22*)
[1]
  fibril formation (time) in ThT assay: 38 ± 1 min

## Aβ40-WT: 40 amino acid long wild-type isoform of Amyloid β
[1]
  fibril formation (time) in ThT assay: 196 ± 7 min

## H-(NLys-Nspe-Nspe)4-NH2 [Peptoid 1]
S. aureus
  activity against pathogen: active
M tuberculosis
  activity against pathogen: active
C. albicans
  activity against pathogen: active
P. gingivalis
  concentration with antimicrobial activity / killing P. gingivalis bacteria: 4 µg/mL
HSV-1
  concentration with antiviral activity / totally inactivating HSV-1 virus: 4 µg/mL
P. aeruginosa
  activity against pathogen: active
Aβ40; FIG. 1C, 20 μM peptide/peptoid concentrations
  anti-amyloid activity (prevention of Aβ amyloid formation): shares the same anti-amyloid activity

## LL-37: peptide produced by the human innate immune system, ~4500 g/mol, 37 amino acids
Aβ40; 1:1 equimolar ratio to wildtype Aβ40
  Aβ fibril formation (ThT fluorescence): totally prevented from forming Aβ fibrils; also recorded: blocks fibril formation
Aβ40; lower relative (sub-stoichiometric) molar amounts vs Aβ40
  kinetics of Aβ fibril formation (ThT fluorescence): slow the kinetics of fibril formation; also recorded: slows it down in a dose-dependent manner
Aβ40; sub-stoichiometric LL-37 addition
  final fluorescence at endpoint in ThT fibril formation assay: higher fluorescence output at endpoint
